The values that follow come from patent US20200325509A1, “Microorganisms and Methods in the Fermentation of Benzylisoquinoline Alkaloids” (Intrexon Corporation, priority 2017, published 2020).

One data set deals with THS2 (Papaver somniferum, UniProt A0A2U9GGW3). Nature of the data set: direct in vitro THS assay (kinetic analysis of THS2). Conditions: for inhibition of THS2 activity on (7S)-salutaridinol 7-O-acetate: added to the direct assay.
The nature of data set [1]: stability of salutaridinol 7-O-acetate in chloroform and aqueous conditions.
Setting [2] is: substrate of purified recombinant THS2, direct assay quenched after 30 sec.

Chain of THS2 (A0A2U9GGW3 whole entry): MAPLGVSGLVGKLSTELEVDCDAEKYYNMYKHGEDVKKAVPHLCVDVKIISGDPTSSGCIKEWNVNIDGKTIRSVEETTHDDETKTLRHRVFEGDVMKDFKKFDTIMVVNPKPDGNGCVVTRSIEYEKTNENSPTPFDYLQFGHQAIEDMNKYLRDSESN

Take `COC1=C[C@]23CCN(C)[C@H](Cc4ccc(OC)c(O)c42)C3=C[C@@H]1O` [(7S)-salutaridinol]: the “inhibition of THS2 activity on (7S)-salutaridinol 7-O-acetate” value against THS2 is recorded as “marginally inhibited”. Besides, the “thebaine production by THS2 directly from the substance” value at THS2 (pH 7.0) is given as “did not produce thebaine”.

Turning to `COC1=C[C@]23CCN(C)[C@H](Cc4ccc(OC)c(O)c42)C3=C[C@@H]1OC(C)=O` [(7S)-salutaridinol 7-O-acetate], in data set [1] (exposure to aqueous conditions), the “formation of m/z 330-byproduct” value is greater than 70% and the “time of formation of m/z 330-byproduct” value is recorded as less than 2 min. Besides, the stability entry in data set [1] (in chloroform) is given as “relatively stable”. Besides, the pH optimum on THS2 (THS2 activity on this substrate, direct assay 30 sec, 40 μM substrate) came to 8.0. Besides, the “positive cooperativity (η)” value at THS2 (substrate of purified recombinant THS2, direct assay) came to 2.3. At THS2 (setting [2]), the KA came to 20 µM and the Vmax is 4.0 nmol min^1 μg^−1.

As to `COC1=C[C@]23CCN(C)[C@H](Cc4ccc(OC)c(O)c42)C3=CC1=O` [salutaridine], the “inhibition of THS2 activity on (7S)-salutaridinol 7-O-acetate” value against THS2 is reported as “marginally inhibited”.
